Key:
CYP2B6 = molecular target: T1, CYP2B6 (Homo sapiens, UniProt P20813); assay: Time-dependent inhibition of CYP450 enzymes in human liver microsomes: CYP2B6; format: in vitro ADME
T1 construct: from tissue; host or cells: pooled human liver microsomes
T1 sequence (P20813 1-491): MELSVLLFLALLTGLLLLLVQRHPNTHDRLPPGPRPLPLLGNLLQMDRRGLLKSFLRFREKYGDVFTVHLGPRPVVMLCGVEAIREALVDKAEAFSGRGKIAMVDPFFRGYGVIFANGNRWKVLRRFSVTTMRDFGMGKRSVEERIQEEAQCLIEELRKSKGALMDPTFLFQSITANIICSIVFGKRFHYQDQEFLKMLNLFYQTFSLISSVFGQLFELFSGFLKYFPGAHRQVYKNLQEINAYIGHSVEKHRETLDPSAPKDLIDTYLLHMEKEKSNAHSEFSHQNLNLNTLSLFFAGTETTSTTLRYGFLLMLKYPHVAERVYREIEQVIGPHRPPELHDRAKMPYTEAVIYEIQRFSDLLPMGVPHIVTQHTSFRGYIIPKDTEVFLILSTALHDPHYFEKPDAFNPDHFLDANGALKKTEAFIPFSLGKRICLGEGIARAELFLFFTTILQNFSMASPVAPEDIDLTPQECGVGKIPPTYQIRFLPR
Experimental: (§1) An assessment of the time-dependent Inhibitory Potential of the test compounds against Principal Human Cytochrome P450 Isozymes using Human Liver Microsomes was also carried out using standard methods (Grimm et al, Drug Metab. Dispos., Jul; 37(7):1355-70. doi: 10.1124/dmd.109.026716, 2009). Pooled human microsomes and selective CYP probe substrates were used for in vitro assessment of test compounds at 25 and 50 μM as time-dependent inhibitors of […] human hepatic cytochrome P450 isozymes (CYP1A2, 2B6, 2C9, 2C19, 2D6, and 3A4). LC-MS/MS was used to quantify metabolite formation. The inhibition of each P450 enzyme in human liver microsomes was measured as the percentage decrease in the activity of marker metabolite formation as measured by LC-MS/MS compared to non-inhibited controls (=100% activity) at time zero and after 30 minutes incubation. The occurrence of any time dependent inhibition was then expressed as the fold change in enzyme activity at time zero relative to the activity after 30 minutes incubation. The time dependent inhibition for the compound 5-(3,4-difluorobenzyl)-8-((1 r,4r)-4-methylcyclohexyl)-6,9-dioxo-2,5, 8-triazaspiro [3.5]nonane-2-carbaldehyde (Compound 1) against CYP1A2, […], CYP2C8, CYP2C9, CYP2C19, CYP2D6, CYP3A4-M and CYP3A4-T is shown in Table B-12.

CYP2C19 = molecular target: T2, CYP2C19 (Homo sapiens, UniProt P33261); assay: Time-dependent inhibition of CYP450 enzymes in human liver microsomes: CYP2C19; format: in vitro ADME; details: for fold change in activity (time dependent inhibition), 2C19: human liver microsomes
T2 construct: from tissue; host or cells: pooled human liver microsomes
Experimental: as §1

CYP1A2 = molecular target: T3, CYP1A2 (Homo sapiens, UniProt P05177); assay: Time-dependent inhibition of CYP450 enzymes in human liver microsomes: CYP1A2; format: in vitro ADME
T3 construct: from tissue; host or cells: pooled human liver microsomes
T3 sequence (P05177 1-516): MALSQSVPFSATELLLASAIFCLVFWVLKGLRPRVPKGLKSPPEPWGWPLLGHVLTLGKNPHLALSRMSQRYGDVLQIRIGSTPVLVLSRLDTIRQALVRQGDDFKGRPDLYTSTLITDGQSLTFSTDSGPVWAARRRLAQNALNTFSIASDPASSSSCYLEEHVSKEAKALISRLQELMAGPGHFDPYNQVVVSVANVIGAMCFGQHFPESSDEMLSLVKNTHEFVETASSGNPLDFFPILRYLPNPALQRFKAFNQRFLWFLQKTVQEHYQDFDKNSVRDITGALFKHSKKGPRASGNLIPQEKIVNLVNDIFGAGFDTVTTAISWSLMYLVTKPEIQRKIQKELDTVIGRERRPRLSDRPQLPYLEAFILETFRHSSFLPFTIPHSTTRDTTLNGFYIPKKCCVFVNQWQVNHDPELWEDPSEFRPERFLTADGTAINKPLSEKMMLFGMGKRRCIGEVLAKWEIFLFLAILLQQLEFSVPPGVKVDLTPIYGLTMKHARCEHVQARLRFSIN
Experimental: as §1

[1] = Short-term static storage stability of the solid (XRPD, HPLC); format: physicochemical
Experimental: Purity analysis was performed on an Agilent HP1100/Infinity 111260 series system equipped with a diode array detector and using OpenLAB software. The full method details are provided below.
For short-term (8 days or fewer) stability experiments, solid material was placed into open vials at elevated storage conditions, unless otherwise stated. These conditions were achieved using saturated salt solutions at specific temperatures within sealed containers. Storage containers were pre-equilibrated prior to input of samples.

T2 sequence (P33261 whole entry): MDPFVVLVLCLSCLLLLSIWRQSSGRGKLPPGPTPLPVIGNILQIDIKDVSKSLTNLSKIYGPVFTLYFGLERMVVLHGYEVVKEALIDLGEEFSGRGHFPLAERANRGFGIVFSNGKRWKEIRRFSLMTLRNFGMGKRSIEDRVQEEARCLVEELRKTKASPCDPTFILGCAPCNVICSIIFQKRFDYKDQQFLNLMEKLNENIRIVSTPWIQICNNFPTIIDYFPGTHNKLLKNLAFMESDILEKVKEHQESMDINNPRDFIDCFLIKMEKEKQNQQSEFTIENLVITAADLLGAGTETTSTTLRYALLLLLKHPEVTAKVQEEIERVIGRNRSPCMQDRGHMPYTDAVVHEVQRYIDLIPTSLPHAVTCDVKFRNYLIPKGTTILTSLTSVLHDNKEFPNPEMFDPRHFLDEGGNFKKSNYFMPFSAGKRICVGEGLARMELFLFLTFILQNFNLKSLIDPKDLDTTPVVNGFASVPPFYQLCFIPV

C[C@H]1CC[C@H](N2CC(=O)N(Cc3ccc(F)c(F)c3)C3(CN(C=O)C3)C2=O)CC1 [Compound 1, 5-(3,4-difluorobenzyl)-8-((1r,4r)-4-methylcyclohexyl)-6,9-dioxo-2,5,8-triazaspiro[3.5]nonane-2-carbaldehyde]
(% Activity NADPH T0)/(% Activity NADPH T30) (CYP2B6; CYP2B6, 25 μM): 1.1
(% Activity NADPH T0)/(% Activity NADPH T30) (CYP2B6; CYP2B6, 50 μM): 1.0
activity at 30 min, 25 µM (CYP2B6; human, pooled human liver microsomes, CYP2B6, 25 μM, 30 minutes incubation, read-out: % Activity NADPH T30): 84%
activity at 0 min, 25 µM (CYP2B6; human, pooled human liver microsomes, CYP2B6, 25 μM, time zero, read-out: % Activity NADPH T0): 95%
activity at 30 min, 50 µM (CYP2B6; human, pooled human liver microsomes, CYP2B6, 50 μM, 30 minutes incubation, read-out: % Activity NADPH T30): 76%
activity at 0 min, 50 µM (CYP2B6; human, pooled human liver microsomes, CYP2B6, 50 μM, time zero, read-out: % Activity NADPH T0): 76%
(% Activity NADPH T0)/(% Activity NADPH T30) (CYP2C19; CYP2C19, 25 μM): 1.4
(% Activity NADPH T0)/(% Activity NADPH T30) (CYP2C19; CYP2C19, 50 μM): 1.1
fold change in activity (time dependent inhibition), 2C19 (CYP2C19; 25 μM): 1.4 fold
fold change in activity (time dependent inhibition), 2C19 (CYP2C19; 50 μM): no change in activity
activity at 30 min, 25 µM (CYP2C19; human, pooled human liver microsomes, CYP2C19, 25 μM, 30 minutes incubation, read-out: % Activity NADPH T30): 86%
activity at 0 min, 25 µM (CYP2C19; human, pooled human liver microsomes, CYP2C19, 25 μM, time zero, read-out: % Activity NADPH T0): 117%
activity at 30 min, 50 µM (CYP2C19; human, pooled human liver microsomes, CYP2C19, 50 μM, 30 minutes incubation, read-out: % Activity NADPH T30): 75%
activity at 0 min, 50 µM (CYP2C19; human, pooled human liver microsomes, CYP2C19, 50 μM, time zero, read-out: % Activity NADPH T0): 84%
(% Activity NADPH T0)/(% Activity NADPH T30) (CYP1A2; CYP1A2, 25 μM): 1.1
(% Activity NADPH T0)/(% Activity NADPH T30) (CYP1A2; CYP1A2, 50 μM): 1.0
activity at 30 min, 25 µM (CYP1A2; human, pooled human liver microsomes, CYP1A2, 25 μM, 30 minutes incubation, read-out: % Activity NADPH T30): 90%
activity at 0 min, 25 µM (CYP1A2; human, pooled human liver microsomes, CYP1A2, 25 μM, time zero, read-out: % Activity NADPH T0): 95%
activity at 30 min, 50 µM (CYP1A2; human, pooled human liver microsomes, CYP1A2, 50 μM, 30 minutes incubation, read-out: % Activity NADPH T30): 85%
activity at 0 min, 50 µM (CYP1A2; human, pooled human liver microsomes, CYP1A2, 50 μM, time zero, read-out: % Activity NADPH T0): 86%

C[C@H]1CC[C@H](N2CC(=O)N(Cc3ccc(F)c(F)c3)C3(CN(C=O)C3)C2=O)CC1 [Form II, 5-(3,4-difluorobenzyl)-8-((1r,4r)-4-methylcyclohexyl)-6,9-dioxo-2,5,8-triazaspiro[3.5]nonane-2-carbaldehyde]
HPLC purity ([1]; Before Storage): 98.2%
XRPD ([1]; Before Storage): Form II
XRPD ([1]; Storage at 25° C./97% RH for 8 days): Unchanged by XRPD
XRPD ([1]; Storage at 40° C./75% RH for 8 days): Unchanged by XRPD

Reference: patent publication US20240132498A1, “CRYSTALLINE FORMS OF 5-(3,4-DIFLUOROBENZYL)-8-((1R,4R)-4-METHYLCYCLOHEXYL)-6,9-DIOXO-2,5,8-TRIAZASPIRO[3.5]NONANE-2-CARBALDEHYDE” (Cytokinetics, Incorporated, priority 2022, published 2024)
